One compound from ChEMBL document CHEMBL1765075, “Discovery and structure-activity relationship of 3-aminopyrid-2-ones as potent and selective interleukin-2 inducible T-cell kinase (Itk) inhibitors” (J Med Chem, 2011) can be followed below.

By Ki is commonly meant the dissociation constant of the complex between target and ligand, obtained from inhibition or displacement. Read a high Ki as a looser hold on the target.

The target in series [1] is Serine/threonine-protein kinase pim-1 (Homo sapiens, UniProt P11309). Put plainly: Inhibition of PIM1.
Series [2] deals with Dual specificity tyrosine-phosphorylation-regulated kinase 1A (Homo sapiens, UniProt Q13627). In words: Inhibition of DYRK1A.
Series [3] concerns the target Proto-oncogene tyrosine-protein kinase Src (Homo sapiens, UniProt P12931). Put plainly: Inhibition of Src after 10 mins by radiometric phosphate incorporation assay.
A short description of series [4]: Permeability across apical to basolateral side of human Caco2 cells after 120 mins by LC-MS/MS analysis. The format is ADME, cell-based. The conditions noted are these: Caco-2, read-out: permeability. On the technique in general: Passage across Caco-2 layers is used to estimate intestinal permeability.
The nature of series [5]: Inhibition of AMPK.
For series [6], the target named is Cytoplasmic tyrosine-protein kinase BMX (Homo sapiens, UniProt P51813). Put plainly: Inhibition of BMX.
The target in series [7] is Dual specificity mitogen-activated protein kinase kinase 6 (Homo sapiens, UniProt P52564). Put plainly: Inhibition of MKK6.
Series [8] has as its target Serine/threonine-protein kinase PLK3 (Homo sapiens, UniProt Q9H4B4). Put plainly: Inhibition of PLK3.
Series [9] concerns the target Mitogen-activated protein kinase 3 (Homo sapiens, UniProt P27361). In words: Inhibition of ERK1.

Chain of Serine/threonine-protein kinase pim-1 (P11309 whole entry): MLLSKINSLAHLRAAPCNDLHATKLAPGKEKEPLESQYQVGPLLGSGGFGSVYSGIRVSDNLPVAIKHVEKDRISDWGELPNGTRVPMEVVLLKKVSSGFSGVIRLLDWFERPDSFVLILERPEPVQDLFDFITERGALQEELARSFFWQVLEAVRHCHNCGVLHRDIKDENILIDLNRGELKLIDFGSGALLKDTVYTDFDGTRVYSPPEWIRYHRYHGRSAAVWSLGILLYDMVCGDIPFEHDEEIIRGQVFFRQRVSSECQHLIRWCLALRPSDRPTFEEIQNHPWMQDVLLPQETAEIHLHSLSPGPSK
Chain of Mitogen-activated protein kinase 3 (P27361 whole entry): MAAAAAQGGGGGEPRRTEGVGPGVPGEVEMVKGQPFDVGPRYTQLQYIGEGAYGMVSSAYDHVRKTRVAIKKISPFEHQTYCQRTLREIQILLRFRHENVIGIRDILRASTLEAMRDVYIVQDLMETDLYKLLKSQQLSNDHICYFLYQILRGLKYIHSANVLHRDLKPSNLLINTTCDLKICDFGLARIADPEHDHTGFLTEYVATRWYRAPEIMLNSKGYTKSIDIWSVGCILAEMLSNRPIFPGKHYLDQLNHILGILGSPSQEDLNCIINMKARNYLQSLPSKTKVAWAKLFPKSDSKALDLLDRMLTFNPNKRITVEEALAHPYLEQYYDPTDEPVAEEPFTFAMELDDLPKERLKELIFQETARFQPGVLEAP
Chain of Dual specificity mitogen-activated protein kinase kinase 6 (P52564 whole entry): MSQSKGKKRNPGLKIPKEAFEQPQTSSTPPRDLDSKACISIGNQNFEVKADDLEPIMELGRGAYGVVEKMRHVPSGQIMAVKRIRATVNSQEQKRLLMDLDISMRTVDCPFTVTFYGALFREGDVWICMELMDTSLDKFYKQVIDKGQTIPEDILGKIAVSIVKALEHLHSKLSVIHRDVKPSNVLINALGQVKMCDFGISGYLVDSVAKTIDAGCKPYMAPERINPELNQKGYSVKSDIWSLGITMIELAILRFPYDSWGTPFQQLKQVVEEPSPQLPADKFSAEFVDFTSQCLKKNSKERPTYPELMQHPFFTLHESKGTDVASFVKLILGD
Chain of Proto-oncogene tyrosine-protein kinase Src (P12931 2-536 limits assumed): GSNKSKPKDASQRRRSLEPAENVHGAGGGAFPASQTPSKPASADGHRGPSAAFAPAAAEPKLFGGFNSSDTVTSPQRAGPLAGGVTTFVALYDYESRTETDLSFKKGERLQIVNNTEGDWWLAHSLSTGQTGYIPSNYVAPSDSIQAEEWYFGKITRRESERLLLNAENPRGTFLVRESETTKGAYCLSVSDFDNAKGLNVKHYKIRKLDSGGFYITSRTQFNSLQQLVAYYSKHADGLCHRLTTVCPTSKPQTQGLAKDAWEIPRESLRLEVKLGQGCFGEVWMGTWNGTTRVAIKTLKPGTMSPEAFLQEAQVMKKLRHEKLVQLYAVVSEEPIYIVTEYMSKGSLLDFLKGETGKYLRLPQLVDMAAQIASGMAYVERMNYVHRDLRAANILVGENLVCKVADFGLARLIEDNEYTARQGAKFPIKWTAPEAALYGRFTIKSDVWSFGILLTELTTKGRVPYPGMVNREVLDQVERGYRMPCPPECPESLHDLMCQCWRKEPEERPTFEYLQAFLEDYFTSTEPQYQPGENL
Chain of Cytoplasmic tyrosine-protein kinase BMX (P51813 whole entry): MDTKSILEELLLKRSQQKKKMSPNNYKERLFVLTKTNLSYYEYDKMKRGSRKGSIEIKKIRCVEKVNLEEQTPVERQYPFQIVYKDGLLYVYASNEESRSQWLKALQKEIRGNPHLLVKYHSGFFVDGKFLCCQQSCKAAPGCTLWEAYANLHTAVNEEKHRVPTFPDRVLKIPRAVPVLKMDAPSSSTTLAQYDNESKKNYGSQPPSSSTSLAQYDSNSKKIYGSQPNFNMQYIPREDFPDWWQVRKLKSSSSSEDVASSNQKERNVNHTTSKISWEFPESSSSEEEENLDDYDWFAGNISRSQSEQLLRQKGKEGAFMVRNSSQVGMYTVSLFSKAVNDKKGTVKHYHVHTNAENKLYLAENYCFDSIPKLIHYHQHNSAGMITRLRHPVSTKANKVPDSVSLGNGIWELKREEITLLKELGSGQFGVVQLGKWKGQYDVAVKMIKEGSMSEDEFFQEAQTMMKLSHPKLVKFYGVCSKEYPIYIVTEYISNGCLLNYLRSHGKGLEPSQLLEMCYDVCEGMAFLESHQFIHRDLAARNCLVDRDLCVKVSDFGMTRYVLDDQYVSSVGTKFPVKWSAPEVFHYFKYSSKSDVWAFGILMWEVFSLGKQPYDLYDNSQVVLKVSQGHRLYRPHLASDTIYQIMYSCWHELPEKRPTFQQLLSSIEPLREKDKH
Chain of Serine/threonine-protein kinase PLK3 (Q9H4B4 whole entry): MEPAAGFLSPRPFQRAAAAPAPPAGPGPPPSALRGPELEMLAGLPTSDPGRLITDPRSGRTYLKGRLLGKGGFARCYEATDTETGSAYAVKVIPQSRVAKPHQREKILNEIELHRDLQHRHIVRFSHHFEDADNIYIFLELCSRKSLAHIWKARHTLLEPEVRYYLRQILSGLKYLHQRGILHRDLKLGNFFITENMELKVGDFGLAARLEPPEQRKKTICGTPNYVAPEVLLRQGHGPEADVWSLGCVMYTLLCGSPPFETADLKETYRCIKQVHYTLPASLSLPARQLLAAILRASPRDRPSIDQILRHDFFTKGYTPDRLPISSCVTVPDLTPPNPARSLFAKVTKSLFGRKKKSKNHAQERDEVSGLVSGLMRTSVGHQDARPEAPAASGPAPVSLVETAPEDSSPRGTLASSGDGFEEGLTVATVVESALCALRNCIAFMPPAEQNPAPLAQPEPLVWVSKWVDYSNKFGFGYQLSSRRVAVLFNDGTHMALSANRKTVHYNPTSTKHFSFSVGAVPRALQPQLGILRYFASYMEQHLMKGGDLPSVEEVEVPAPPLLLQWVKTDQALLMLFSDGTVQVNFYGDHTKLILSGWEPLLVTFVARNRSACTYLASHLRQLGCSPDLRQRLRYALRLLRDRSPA

As to `CNc1cncc(-c2c[nH]c(=O)c(NC(=O)c3ccc(N4CCC[C@H]4CN4CCCC4)cc3)c2)n1`, the Ki in [1] was > 1000 nM; in series [2] it was > 1000 nM; in [3] it was 120 nM; in series [5] it was > 1000 nM; in series [6], > 1000 nM; in series [7], > 1000 nM. The figures for the Ki in [8] and in series [9] were > 1000 nM and > 2000 nM, respectively. Further, in series [4], the Papp A→B at 2 h is 10.8 ×10⁻⁶ cm/s.
